According to patent US9220706B2, “Inhibition of leukemic stem cells by PP2A activating agents” (Ohio State Innovation Foundation, priority 2012, dated 2015):

Legend:
[1] = molecular target: T1, SET-PP2A interaction (Homo sapiens, UniProt Q01105); test: Proximity ligation assay, SET-PP2A association; assay type: cell-based; conditions: CD34^+/CD38^− CML cells, 24 h
T1 construct: untreated and FTY720-treated (24 h) CD34^+/CD38^− CML cells; endogenous in cells; host or cells: CD34+/CD38- CML patient cells
From the text: (§1) Immunofluorescence and proximity ligation assay. CD34^+/CD38^− cells from CML patient samples or LSK cells derived from induced leukemic mice were sorted, treated in liquid culture with the indicated drugs and cytospun onto glass slides. Slides were fixed in 3.7% formaldehyde, penneabilized with 0.05% Triton X-100, and stained with an Anti-®-catenin primary antibody (Cell signaling), a secondary goat F(ab′) anti-rabbit conjugated to Alexa Fluor 647, and the nuclear stain DAPI (Invitrogen); slides were mounted with Slowfade antifade reagent (Invitrogen). Microphotographs were obtained with a Zeiss LSM 510 confocal laser-scanning microscope with C-Apochromat 63/1.2 W objective. A minimum of three fields for each slide were acquired. For the Proximity Ligation Assay (PLA) CD34+/CD38− CML cells were treated, fixed, and permeabilized as described above. The slides were then simultaneously stained with a mix of mouse anti-PP2A (Millipore) and rabbit anti-SET (Globozyme) antibodies. The PLA procedure (Duolink; Olink Bioscience) was performed according to manufacturer instructions. An average of 20 z-stack ([…]) were captured with a Zeiss LSM 510 confocal laser-scanning microscope with C-Apochromat 63/1.2 W objective; at least three fields/slide were acquired. Three-dimensional projections were generated and positive signals/cell were calculated by ImageJ software (NIH).

[2] = system: CFSE^max/CD34^+ CML cells; test: CFSE-mediated tracking of quiescent cells, CML; assay type: cell-based, human; conditions: CFSE-labeled CD34^+ CML cells; FTY720 at 2.5 μM
Experimental: (§2) CFSE-mediated tracking of cell division. Carboxyfluorescein diacetate succinimidyl diester (CFSE)-stained cells (CellTrace CFSE Proliferation Kit: Invitrogen) were cultured in the presence of the indicated drugs (dosed at time zero and at day three), and the cells were harvested after 3 or 6 days in culture, and stained with anti-CD34 PE, Annexin-V V450, and the viability stain 7-AAD (BD Bioscience) to determine the number of viable quiescent cells (CFSEmax/CD34^+/7-AAD− cells) and the percentage of quiescent and apoptosis-committed cells (CFSEmax/CD34+/Annexin V+/7-AAD±). Cells were sorted into dividing and quiescent populations for Western blot analysis. For assessment of mouse quiescent leukemic HSCs, Lin- cells from 8 week-induced SCLtTA/BCR-ABL1 mice were CFSE-stained and used as described above. Quiescent cells (CFSE^max/CD34^+) were reported as a fraction of the initial number of CD34^+ cells.

[3] = system: CML cells (CFSE^max/CD34^+, CD34^+/CD38^−, CD34^+); test: Annexin-V/7-AAD apoptosis staining; assay type: cell-based, human
Experimental: as §2

[4] = system: LSK SCLtTA/BCR-ABL1 cells; test: CFC/replating assay, leukemic LSK cells; assay type: cell-based, mouse
Experimental: Long term culture-initiating cell (LTC-IC) and Colony-forming cell (CFC)/replating assays. 2×10^6 mononuclear CML cells were cultured with a 1:1 mixture of irradiated (80 Gy) IL-3/G-CSF-producing M2-10B4 and IL-3/KL-producing SI/SI murine fibroblasts in MyeloCult H5100 (StemCell Technologies) supplemented with hydrocortisone. Drugs were present during the first week of culture. Medium was replaced after 7 days, followed by weekly half-medium changes. After 6 weeks, adherent and floating cells were harvested and 5×10^4 cells plated into MethoCult H4435. LTC-IC-derived colonies were scored after 14 days. For CFC/replating, individual 14-day colonies from 10^3-10^5 CD34+/CD38− CML or 0.2×10^3-10^3 leukemic LSK cells plated in 0.9% H4435 or M3234 MethoCult, respectively, containing KL, G-CSF, GM-CSF, IL-3, IL-6, and Epo were replated and scored 2 weeks later.

[5] = system: CFSE^max/CD34^+ NBM cells; test: CFSE-mediated tracking of quiescent cells, normal bone marrow; assay type: cell-based, human
Experimental: as §2

[6] = system: Lin^− SCLtTA-BCR-ABL1 cells; test: CFSE-mediated tracking of quiescent cells, mouse leukemic; assay type: cell-based; conditions: 2.5 μM FTY720
Experimental: as §2

[7] = system: UCB CD34^+ cells in NSG mice; conditions: mouse, in vivo
From the text: Engraftment of Human Normal and CML Cells in Immnunodeficient NSG Mice and Effect of FTY720 on Leukemic and Normal Hematopoietic Stem/Progenitor Cells. CD34+ cells were isolated from BM of CML patients (n=3) or from umbilical cord blood specimens (UCB; n=3). Note that CML samples were from patients in blastic transformation with ≧75% of Ph+ blasts. Sublethally irradiated (260 rads) 6-8 week-old NOD.Cg-Prkds^scid IL2rg^tm1WjI/SzJ (NSG, Jackson Laboratory) mice were intrafemorally injected with 1-3×10^6 CML or 10^5 UCB CD34^+ cells/mouse. The engraftment was assessed 8 weeks post-transplant by anti-human CD45 (BD Biosciences) and anti-mouse CD45.1 flow staining of intrafemoral BM aspirates and PB from tail vein. Wunderlich et al., Leukemia 24, 1785-1788 (2010). […] Disease evolution and effect of FTY720 on HSC-enriched cell fraction (CD45^+/CD34^+/CD38^−), primitive progenitors (CD45+/CD34+), myeloid (CD45^+/CD34^+/CD33^+), B-cell (CD45^+/CD19^+) and T-cell (CD45^+/CD3^+) compartments were determined before and after 4/8 weeks of FTY720 treatment by FACS-mediated analysis of BM aspirates and/or PB cells. BCR-ABL1 transcript levels were monitored by qRT-PCR-mediated (Ipsogen) analysis of BCR-ABL1/human Abl1 ratios in total RNA samples derived from BM-aspirates of CML-engrafted animals at time of engraftment (time 0) and after 8 weeks of FTY720 treatment. […]

[8] = system: β-catenin; test: β-catenin immunofluorescence; assay type: cell-based, human
From the text: as §1

T1 sequence (Q01105 1-277 isoform Q01105-2): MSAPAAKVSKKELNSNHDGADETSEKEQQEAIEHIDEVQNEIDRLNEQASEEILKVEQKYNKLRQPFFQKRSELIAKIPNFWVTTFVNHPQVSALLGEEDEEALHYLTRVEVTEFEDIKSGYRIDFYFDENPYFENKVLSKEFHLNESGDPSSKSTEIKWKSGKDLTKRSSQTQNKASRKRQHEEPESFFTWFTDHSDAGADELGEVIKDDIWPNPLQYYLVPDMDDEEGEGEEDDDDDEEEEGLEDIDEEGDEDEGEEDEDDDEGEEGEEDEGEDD

For `CCCCCCCCc1ccc(CCC(N)(CO)CO)cc1` [FTY720], the SET-PP2A interaction [1] was “disrupts the SET-PP2A interaction”, the “decrease in CFSE^max (quiescent) CML HSCs” value [2] was 60-75% and the “apoptosis of CD34^+ CML progenitors in combination with imatinib” value ([3]; CD34^+ CML progenitors n=10) was “synergizes with imatinib”. For the same molecule, the “apoptosis of quiescent/HSC-enriched CML cells” value ([3]; CFSE^max/CD34^+ or CD34^+/CD38^− CML cells) was “triggered apoptosis”, the “reduction in replating efficiency” value [4] was 70-90% and the “effect on frequency/number of normal quiescent CFSE^max cells” value [5] was “not influenced”. The “decrease in CFSE^max HSCs” value [6] was 70-90%, the “effect on human BM cell fractions” value [7] was “did not exert noteworthy effects” and the “numbers of circulating B-(CD19^+) and T-(CD3^+) cells” value [7] was “reduced numbers”. For the same molecule, the β-catenin degradation ([8]; CD34^+/CD38^− CML, leukemic LSK, and 32D-BCR/ABL cells) was “induced β-catenin degradation” and the β-catenin expression ([8]; Ph^+ CD34^+/CD38^− cells) was “markedly decreased”.
